What all share (assay): NCI tumour cell line growth inhibition, 48 h
In assay [1] the test system is NCI/ADR-RES ovarian.
For assay [2], the system named is HS 578T breast.
The test system of assay [3] is NCI-H23 lung.
Assay [4] concerns HCC-2998 colon.
Assay [5] deals with SF-268 CNS.
The subject of assay [6] is SR leukemia.
In assay [7] the test system is SK-OV-3 ovarian.
The subject of assay [8] is T-47D breast.
Assay [9] deals with SW-620 colon.
The subject of assay [10] is UO-31 renal.

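Dose response: 5 concentrations. Exposure: 48 h. Format: 96-well plates. Endpoint: linear interpolation; highest concentration if not reached. GI50 marks 50% less growth. TGI: total growth inhibition.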

Regarding `COc1cc([C@@H]2c3cc4c(cc3[C@H](OC3OC5COC(c6ccccc6)OC5C(O)C3O)[C@H]3COC(=O)[C@H]23)OCO4)cc(OC)c1OC` (stereo not given in full), the GI50 in assay [1] is 0.4 µM; in assay [2], 303 nM; in [3], 0.418 µM; in [4] it was 0.367 µM; in assay [5], 0.428 µM; in assay [6], 0.31 µM. Besides, the GI50 was 0.441 µM in assay [7], 1730 nM in assay [8], 0.396 µM in assay [9] and 366 nM in [10]. Besides, the TGI was 3 µM in assay [1]; 1.67 µM in [2]; 14.5 µM in [3]; 4.7 µM in assay [4]; 2.72 µM in [5]; more than 100 µM in [6]. The TGI is 18.5 µM in [7], 5.87 µM in assay [8], 10.8 µM in assay [9] and 3.85 µM in [10].
Consider `CCOC(=O)c1cnc2ccc(Cl)cc2c1NCCCN(C)C`, for which the GI50 is 25 µM in assay [1]; 29500 nM in assay [2]; 32.7 µM in [3]; 38.4 µM in assay [4]; 19.9 µM in assay [5]; 6.42 µM in [6]. For the same compound, the GI50 was 34.9 µM in [7], 41500 nM in assay [8], 13.4 µM in [9] and 16300 nM in [10]. Besides, the TGI in [1] was more than 100 µM; in [2], more than 100 µM; in assay [3], more than 100 µM; in assay [4], more than 100 µM; in assay [5], 94 µM; in assay [6] it was 70.4 µM. Also, the TGI in assay [7] is more than 100 µM; in [8] it was more than 100 µM; in assay [9] it was 74.6 µM; in assay [10], 57 µM.
Regarding `N#Cc1c(N)nn(C(=O)c2ccc(NC(=O)c3ccccn3)cc2)c1-c1ccc(Cl)cc1`, the GI50 is 4.09 µM in [1]; 2890 nM in assay [2]; 3.77 µM in [3]; 3.68 µM in assay [4]; 3.55 µM in assay [5]; 3.81 µM in assay [6]. Also, the GI50 in [7] is 5.23 µM; in assay [8], 2790 nM; in assay [9] it was 3.7 µM; in [10], 1790 nM. Also, the TGI in assay [1] was more than 100 µM; in assay [2] it was more than 100 µM; in [3], 34.8 µM; in [4], more than 100 µM; in assay [5] it was 24.1 µM; in assay [6], more than 100 µM. For the same compound, the TGI is 34.9 µM in assay [7], 9.15 µM in [8], more than 100 µM in [9] and 5.27 µM in [10].

Values taken from PubChem BioAssay (NCI).
